Values quoted from earlier work, collected in patent publication US9572848B1, “Composition of matter for sexual dysfunction” (Aemes Research L.L.L.P., priority 2014, dated 2017).

Tests used:
[1] = tested on: blood pressure; details: meta-analysis
[2] = tested on: growth hormone (GH) levels; details: oral arginine, 9-gram dose; placebo 2.9 (+/−0.7)

## N=C(N)NCCC[C@H](N)C(=O)O [L-arginine]
[1]
  Reduction of DBP, pooled estimate: 2.7 mmHg
  Reduction of SBP, pooled estimate: 5.4 mmHg
[2]
  Mean peak GH level: 6.4 (+/−1.3) μg/L
